pIC50: −log10 of the molar value. ≈ marks a conversion by molar mass, not a printed value.
Tests used:
[1] = In vitro cytotoxicity, Sulforhodamine B (SRB) assay; assay type: cell-based, human; conditions: human, range 80 to 0.55 μg/mL
From the text: (§1) Toxicity scrutiny of synthesized compounds at the early phase of research paves the way to clinical trials and reduces the failure of potential therapeutics at later stages of clinical trials. To scrutinize the safety and selectivity of antimicrobial activity of the synthesized compounds, the compounds 6c and 6f were appraised for their toxicity against HeLa (a human cervical cancer cell line) and PC-3 (human prostate cancer cell line) by the Sulforhodamine B (SRB) assay using adriamycin as a standard drug.
(§2) The images were captured using an Eclipse Ti-S Inverted Research Microscope (Nikon, Tokyo, Japan). Image processing software used was NIS-Elements.

Aspergillus fumigates = test: In vitro antifungal activity (MIC100, CLSI/NCCLS); assay type: cell-based; conditions: A. fum., average of three readings, read-out: MIC 100
Description: (§3) The newly synthesized derivatives 4(a–f) and 6(a–f) were screened for their in vitro antifungal activity against different yeast and filamentous fungal pathogens. Minimum inhibitory concentration (MIC100) values for in vitro antifungal activity were determined by the methods recommended by National Committee for Clinical Laboratory Standards (NCCLS). Miconazole was used as standard drug. Dimethyl sulfoxide (DMSO) was used as solvent control.
(§4) In vitro antifungal activity was determined as per CLSI (formerly, NCCLS) guidelines. […] The medium yeast nitrogen base was dissolved in phosphate buffer pH 7 and it was autoclaved at 110 °C for 10 min. With each set a growth control without the antifungal agent and solvent control DMSO were included. The fungal strains were freshly sub cultured on to Sabouraud dextrose agar (SDA) and incubated at 25 °C for 72 h. The fungal cells were suspended in sterile distilled water and diluted to get 10^5 cells/mL. Further, ten microlitres of the standardized suspension was inoculated onto the control plates and the media incorporated with the antifungal agents. The inoculated plates were incubated at 25 °C for 48 h. The readings were taken at the end of 48 h and 72 h. The MIC was the lowest concentration of drug preventing growth of macroscopically visible colonies on drug containing plates when there was visible growth on the drug free control plates.

Cryptococcus neoformans = test: In vitro antifungal activity (MIC100, CLSI/NCCLS); assay type: cell-based; conditions: C. neo., average of three readings, read-out: MIC 100
Description: as §3, §4

Candida albicans = test: In vitro antifungal activity (MIC100, CLSI/NCCLS); assay type: cell-based; conditions: C. alb., average of three readings, read-out: MIC 100
Description: as §3, §4

A. flavus = test: In vitro antifungal activity (MIC100, CLSI/NCCLS); assay type: cell-based; conditions: Aspergillus flavus; A. fla.; average of three readings; read-out: MIC 100
Description: as §3, §4

Fusarium oxysporum = test: In vitro antifungal activity (MIC100, CLSI/NCCLS); assay type: cell-based; conditions: F. oxy., average of three readings, read-out: MIC 100
Description: as §3, §4

Candida glabrata = test: In vitro antifungal activity (MIC100, CLSI/NCCLS); assay type: cell-based; conditions: Nakaseomyces glabratus; C. glab.; average of three readings; read-out: MIC 100
Description: as §3, §4

Aspergillus niger = test: In vitro antifungal activity (MIC100, CLSI/NCCLS); assay type: cell-based; conditions: A. nig., average of three readings, read-out: MIC 100
Description: as §3, §4

[2] = tested on: ergosterol biosynthesis in Candida albicans (NCIM-3471); test: Ergosterol extraction and quantitation assay (UV sterol profile); assay type: cell-based; conditions: C. albicans NCIM3471; 6f 24 µg/mL, miconazole 25 µg/mL; 281.5 nm
Description: Changes in this absorption pattern are therefore indicative of interference in the synthetic pathway of ergosterol.
A single Candida albicans (NCIM-3471) colony from an overnight Sabouraud dextrose agar plate culture was used to inoculate 50 mL of Sabouraud dextrose broth for control and for various concentrations of the molecules. The cultures were incubated for 16 hours and harvested by centrifugation at 2700 rpm (856× g) for five min. The net weight of the cell pellet was determined. Three mL of 25% alcoholic potassium hydroxide solution was added to each pellet and vortex mixed for one min. Cell suspensions were transferred to sterile borosilicate glass screw-cap tubes and were incubated in an 85 °C water bath for one hour. Following incubation, the tubes were allowed to cool. Sterols were then extracted by addition of a mixture of 1 mL of sterile distilled water and 3 mL of n-heptane followed by vigorous vortex mixing for 3 min. The heptane layer was transferred to a clean borosilicate glass screw-cap tube and stored at −20 °C. Prior to analysis, 0.6 mL aliquot of sterol extract was diluted five fold in 100% ethanol and scanned spectrophotometrically between 240 nm and 300 nm with a spectrophotometer (UV-Visible Spectrophotometer 2100, Thermo Fischer Scientific, Waltham, MA, USA). The presence of ergosterol and the late sterol intermediate 24(28)-dehydroergosterol (DHE) in the extracted sample results in a characteristic four-peaked curve. The absence of detectable ergosterol in extracts was indicated by a flat line.
Sterols were extracted from cells and spectral profiles between 240 and 300 nm were determined.

DdlB from E.coli = DdlB from E.coli (Escherichia coli, UniProt P07862); test: D-Alanine-D-alanine ligase (DdlB) enzyme inhibition, malachite green method; assay type: biochemical; conditions: 37 °C, 30 min incubation, 5% DMSO
Description: The key enzyme involved in the peptidoglycan biosynthesis is D-alanine-D-alanine ligase (Ddl), making it an important target for drug discovery. Inhibition of DdlB as an essential enzyme in either Gram-positive or Gram-negative organisms leads to the loss of cell shape and integrity followed by bacterial death. The synthesized derivatives 4(a–f) and 6(a–f) were tested for their inhibitory activity on DdlB from E.coli. The results are presented as IC50 values.
The D-Ala-adding activity of DdlB ligase was monitored by the detection of orthophosphate generated during the reaction based on the colorimetric malachite green method described by Walsh et al.. […] All the compounds were soluble in the assay mixture containing 5% DMSO. After 30 min of incubation, 100 µL Biomol reagent was added. After 5 min, absorbance was read at 650 nm. Residual activity was calculated with respect to a similar assay without inhibitor. To exclude possible non-specific (promiscuous) inhibitors, representative compounds 4(a–f) and 6(a–f) were also tested in the presence of Tween (0.003%), Triton X-114 (0.005%), and SDS (420 µM), as described by McGovern et al.. No significant differences were found when compared to measurements without detergents.

Swiss albino mice = test: In vivo acute oral toxicity study and gross behavioral study (OECD guideline No. 425)
Description: The in vivo acute oral toxicity and gross behavioral study results of the newly synthesized compounds 6c and 6f are as listed in Table 12 [26].
Each group, consisting of six Swiss albino mice (18–22 gm weight, overnight fasted), were kept in colony cage at 25 ± 2 °C with 55% relative humidity and 12 h of light and dark cycle. A specified dose of 100, 250, 500, 750, 1000, 1500 and 2000 mg/kg body weight of mice was administered orally as a single dose. The acute toxic symptoms and the behavioral changes produced by the test compounds were observed continuously for 4 h periods at 8th, 12th and 24th h on set of toxic symptoms and the gross behavioral changes were also recorded. These animals were maintained for further 10 days with observation made daily. The in vivo acute oral toxicity study was carried out at animal house at the Y.B. Chavan College of Pharmacy, Aurangabad IAEC approval number CPCSEA/IAEC/P’col-52/2015-16/115 [26].

[3] = tested on: HeLa (human cervical cancer cell line); test: In vitro cytotoxicity, Sulforhodamine B (SRB) assay; assay type: cell-based; conditions: up to 80 µg/mL
From the text: as §1, §2

Escherichia coli 1411 = test: In vitro antibacterial activity (MIC100, two fold serial dilution, NCCLS); assay type: cell-based; conditions: Escherichia coli, 1411, 24 h, read-out: MIC100
Description: (§5) All the synthesized compounds 4(a–f) and 6(a–f) were screened for their in vitro antibacterial activity against Staphylococcus aureus (NCIM-2901), Escherichia coli 1411 (standard laboratory strains) and Escherichia coli SM1411 (an acrAB deficient derivative of 1411). Minimum inhibitory concentration (MIC100) values were determined using methods recommended by National Committee for Clinical Laboratory Standards (NCCLS). Dimethyl sulfoxide (DMSO) was used as solvent control.
(§6) All the synthesized compounds 4(a–f) and 6(a–f) were screened for their in vitro antibacterial activity against Staphylococcus aureus (NCIM-2901) and Escherichia coli 1411 (standard laboratory strains) and Escherichia coli SM1411 (an acrAB deficient derivative of 1411). Minimum inhibitory concentration (MIC100) values were determined using the method recommended by National Committee for Clinical Laboratory Standards (NCCLS). In vitro antibacterial activities of the synthesized compounds 4(a–f) and 6(a–f) were tested in Nutrient Broth (NB) for Bacteria by the two fold serial dilution method. Seeded broth (broth containing microbial spores) was prepared in NB from 24 h old bacterial cultures on nutrient agar (Hi-media) at 37 ± 1 °C. The bacterial suspension was adjusted with sterile saline to a concentration of […]. The synthesized compounds and standard drug D-cycloserine were prepared by two fold serial dilutions to obtain the required concentrations. The tubes were incubated in BOD incubators at 37 ± 1 °C for bacteria. The MICs were recorded by visual observations after 24 h (for bacteria) of incubation.

[4] = tested on: Escherichia coli SM1411 (an acrAB deficient derivative of 1411); test: as above; assay type: cell-based; conditions: 24 h, read-out: MIC100
Description: as §5, §6

[5] = tested on: Staphylococcus aureus (NCIM-2901); test: as above; assay type: cell-based; conditions: Staphylococcus aureus, NCIM2901, 24 h, read-out: MIC100, S. aureus NCIM-2901, average of three readings
Description: as §5, §6

SMILES | GI50 ([1]; HeLa cells, SRB assay) [µg/mL] | GI50 ([1]; PC-3 cells) [µg/mL] | MIC (Aspergillus fumigates) [µg/mL] | MIC (Cryptococcus neoformans) [µg/mL] | MIC (Candida albicans) [µg/mL] | MIC (A. flavus) [µg/mL] | MIC (Fusarium oxysporum) [µg/mL] | MIC (Candida glabrata) [µg/mL] | MIC (Aspergillus niger) [µg/mL] | ergosterol peak in UV sterol profile at the MIC value [2] | pIC50 (DdlB from E.coli) | No. of Deaths (Swiss albino mice; Swiss albino mice, single oral dose 100 to 2000 mg/kg) | lethal dose (Swiss albino mice; mice, oral, single dose, no mortality up to 2000 mg/kg) | cell inhibition [3] | MIC (Escherichia coli 1411) [µg/mL] | MIC [4] [µg/mL] | MIC [5] [µg/mL] | melting point [°C]
COc1cccc2c1C(=O)c1c(O)c3c(c(O)c1C2=O)C[C@@](O)(C(=O)CO)C[C@@H]3O[C@H]1C[C@H](N)[C@H](O)[C@H](C)O1 [Adriamycin, reference compound] | 0.5 (≈ 0.92 µM) | 0.5 (≈ 0.92 µM) | – | – | – | – | – | – | – | – | – | – | – | – | – | – | – | –
Clc1ccc(COC(Cn2ccnc2)c2ccc(Cl)cc2Cl)c(Cl)c1 (centres unmarked) [Miconazole, reference compound] | – | – | 35 (≈ 84.1 µM) | 12 (≈ 28.8 µM) | 25 (≈ 60.1 µM) | 12 (≈ 28.8 µM) | 25 (≈ 60.1 µM) | 25 (≈ 60.1 µM) | 12 (≈ 28.8 µM) | inhibition of ergosterol | – | – | – | – | – | – | – | –
CC1=C(C(=O)NN)C(c2coc3ccc(F)cc3c2=O)NC(=O)N1 (centres unmarked) [Compound 6c, 4-(6-Fluoro-4-oxo-4H-chromen-3-yl)-6-methyl-2-oxo-1,2,3,4-tetrahydropyrimidine-5-carbohydrazide] | > 80 | > 80 | 60 (≈ 181 µM) | 40 (≈ 120 µM) | 52 (≈ 156 µM) | 42 (≈ 126 µM) | 58 (≈ 175 µM) | 52 (≈ 156 µM) | 40 (≈ 120 µM) | – | 3.97 | N | above 2000 mg/kg body weight | cell inhibition did not occur | 14 (≈ 42.1 µM) | 14 (≈ 42.1 µM) | 32 (≈ 96.3 µM) | –
CCOC(=O)C1=C(C)NC(=S)NC1c1coc2ccccc2c1=O (centres unmarked) [Compound 4b, Ethyl 6-methyl-4-(4-oxo-4H-chromen-3-yl)-2-thioxo-1,2,3,4-tetrahydropyrimidine-5-carboxylate] | – | – | 60 (≈ 174 µM) | 55 (≈ 160 µM) | 64 (≈ 186 µM) | 66 (≈ 192 µM) | 58 (≈ 168 µM) | 66 (≈ 192 µM) | 52 (≈ 151 µM) | – | 3.53 | – | – | – | 50 (≈ 145 µM) | 50 (≈ 145 µM) | 68 (≈ 197 µM) | 210 to 212
CCOC(=O)C1=C(C)NC(=S)NC1c1coc2ccc(OC)cc2c1=O (centres unmarked) [Compound 4e, Ethyl 4-(6-methoxy-4-oxo-4H-chromen-3-yl)-6-methyl-2-thioxo-1,2,3,4-tetrahydropyrimidine-5-carboxylate] | – | – | 34 (≈ 90.8 µM) | 20 (≈ 53.4 µM) | 30 (≈ 80.1 µM) | 18 (≈ 48.1 µM) | 30 (≈ 80.1 µM) | 32 (≈ 85.5 µM) | 18 (≈ 48.1 µM) | – | 3.47 | – | – | – | 58 (≈ 155 µM) | > 60 | > 200 | 222 to 224

Reference: PMC6017654, “Ionic Liquid-Promoted Synthesis of Novel Chromone-Pyrimidine Coupled Derivatives, Antimicrobial Analysis, Enzyme Assay, Docking Study and Toxicity Study” (Molecules : A Journal of Synthetic Chemistry and Natural …, 2018)
